Data on 13 compounds can be found in ChEMBL document CHEMBL5143654, “Synthesis and biological evaluation of marine natural product, Cryptoechinuline D derivatives as novel antiangiogenic agents” (Bioorg Med Chem Lett, 2022).

In test [1] the test system is HUVEC. The experiment in a line: Cytotoxicity against HUVEC cells assessed as cell viability at 50 uM measured after 24 hrs by MTT assay. Type of test: functional. The note with it: Homo sapiens, read-out: Activity. Background: Formazan colour is commonly taken as a measure of viable cells.
For test [2], the system named is HUVEC. The experiment in a line: Cytotoxicity against HUVEC cells assessed as inhibition of cell viability measured after 24 hrs by MTT assay. Format: functional, cell-based. The following applies: Homo sapiens.
Test [3] concerns HUVEC. The experiment in a line: Antiproliferative activity against HUVEC assessed as decrease in number Edu-positive cells at 5 to 10 uM after 24 hrs by fluorescence microscopic analysis. Type of test: functional, cell-based. The note with it: Homo sapiens, dose 5-10 µM.
In test [4] the test system is HUVEC. The experiment in a line: Anti-angiogenesis activity against HUVEC cells assessed as inhibition of horizontal migration at 5 to 10 uM measured after 8 hrs by wound healing assay. Format: functional, cell-based. The note with it: Homo sapiens, dose 5-10 µM.
Test [5] concerns HUVEC. The experiment in a line: Anti-angiogenesis activity against HUVEC cells assessed as inhibition of vertical migration at 5 to 10 uM measured after 24 hrs by Transwell assay. Type of test: functional, cell-based. The note with it: Homo sapiens, dose 5-10 µM.
The test system of test [6] is HUVEC. The experiment in a line: Anti-angiogenesis activity against HUVEC cells assessed as inhibition of cell migration at 5 to 10 uM measured after 24 hrs by Matrigel invasion assay. Type of test: functional, cell-based. The following applies: Homo sapiens, dose 5-10 µM.
Test [7] has as its system HUVEC. The experiment in a line: Anti-angiogenesis activity against HUVEC cells assessed as decrease in Ang2 level at 5 to 10 uM measured after 24 hrs by Western blot analysis. Type of test: functional, cell-based. The following applies: Homo sapiens, dose 5-10 µM. A general note: In western blotting, separated proteins are transferred to a membrane and probed.
Test [8] concerns HUVEC. The experiment in a line: Anti-angiogenesis activity against HUVEC cells assessed as decrease in Tie2 phosphorylation at Tyr1102/1100 level at 5 to 10 uM measured after 24 hrs by Western blot analysis. Type of test: functional, cell-based. The note with it: Homo sapiens, dose 5-10 µM.

pIC50: −log10 of the molar value. Activity calls are given as the source filed them. The rule behind the calls is not given here.

The pIC50 is the IC50 on a negative log10 scale, so that one unit is a factor of ten.

Take `C=CC(C)(C)c1[nH]c2ccccc2c1/C=C1\NC(=O)[C@@]2(C[C@@H](C)C=C[C@H]2/C=C/c2c(O)cc(CC=C(C)C)c(OC)c2C=O)NC1=O` (racemic): the viability at 50 µM in the test on HUVEC [1] came to 78.7%. The same measure, in the same setting: next, `C=CC(C)(C)c1[nH]c2ccccc2c1/C=C1\NC(=O)[C@@]2(C[C@@H](C)C=C[C@H]2/C=C/c2c(O)cc(CC=C(C)C)c(O)c2C=O)NC1=O` (racemic): 82.1%.

`C=CC(C)(C)c1[nH]c2ccccc2c1/C=C1\NC(=O)[C@@]2(C[C@@H](C)C=C[C@H]2/C=C/c2c(OC)cc(CC=C(C)C)c(O)c2CN2CCCC2)NC1=O` (racemic): the viability at 50 µM with HUVEC [1] was determined as 81.6%.

Turning to `C=CC(C)(C)c1[nH]c2ccccc2c1/C=C1\NC(=O)[C@@]2(C[C@@H](C)C=C[C@H]2/C=C/c2c(OC(C)=O)cc(CC=C(C)C)c(OC(C)=O)c2/C=N\O)NC1=O` (racemic), in the test with HUVEC [1], the viability at 50 µM was determined as 94.4%. On to `C=CC(C)(C)c1[nH]c2ccccc2c1/C=C1\NC(=O)[C@@]2(C[C@@H](C)C=C[C@H]2/C=C/c2c(OC(C)=O)cc(CC=C(C)C)c(OC(C)=O)c2C=O)NC1=O` (racemic), for which, in the test with HUVEC [1], the viability at 50 µM stood at 5.33%. In addition, the pIC50 with HUVEC [2] is 4.90. The inhibition result in the test with HUVEC [2] (DDE = dose-dependent effect) is “Dde”. Further, the inhibition result in the test with HUVEC [3], in the test on HUVEC [4], with HUVEC [5], with HUVEC [6], in the test with HUVEC [7] and with HUVEC [8] was “Active” in each case. Consider `C=CC(C)(C)c1[nH]c2ccccc2c1/C=C1\NC(=O)[C@@]2(C[C@@H](C)C=C[C@H]2/C=C/c2c(OC(C)=O)cc(CC=C(C)C)c(O)c2CN(CC)CC)NC1=O` (racemic), for which the viability at 50 µM in the test with HUVEC [1] is 94.3%. For `C=CC(C)(C)c1[nH]c2ccccc2c1/C=C1\NC(=O)[C@@]2(C[C@@H](C)C=C[C@H]2/C=C/c2c(OC(C)=O)cc(CC=C(C)C)c(O)c2C#N)NC1=O` (racemic), the viability at 50 µM in the test with HUVEC [1] was 71.8%. For the compound `C=CC(C)(C)c1[nH]c2ccccc2c1/C=C1\NC(=O)[C@@]2(C[C@@H](C)C=C[C@H]2/C=C/c2c(OC(C)=O)cc(CC=C(C)C)c(O)c2CO)NC1=O` (racemic), in the test with HUVEC [1], the viability at 50 µM came out at 40.4%. As for `C=CC(C)(C)c1[nH]c2ccccc2c1/C=C1\NC(=O)[C@@]2(C[C@@H](C)C=C[C@H]2/C=C/c2c(OC)cc(CC=C(C)C)c(O)c2C=O)NC1=O` (racemic), the viability at 50 µM with HUVEC [1] was found to be 31.1%. Consider `C=CC(C)(C)c1[nH]c2ccccc2c1/C=C1\NC(=O)[C@@]2(C[C@@H](C)C=C[C@H]2/C=C/c2c(OC(C)=O)cc(CC=C(C)C)c(O)c2C=O)NC1=O` (racemic), for which the viability at 50 µM with HUVEC [1] turned out to be 33.7%. As to `C=CC(C)(C)c1[nH]c2ccccc2c1/C=C1\NC(=O)[C@@]2(C[C@@H](C)C=C[C@H]2/C=C/c2c(OC)cc(CC=C(C)C)c(OC)c2C=O)NC1=O` (racemic), the viability at 50 µM in the test with HUVEC [1] is 87.5%. Regarding `C=CC(C)(C)c1[nH]c2ccccc2c1/C=C1\NC(=O)[C@@]2(C[C@@H](C)C=C[C@H]2/C=C/c2c(OC(C)=O)cc(CC=C(C)C)c(OC(C)=O)c2COC(C)=O)NC1=O` (racemic), the viability at 50 µM in the test with HUVEC [1] worked out at 83.2%. As for `C=CC(C)(C)c1[nH]c2ccccc2c1/C=C1\NC(=O)[C@@]2(C[C@@H](C)C=C[C@H]2/C=C/c2c(OC(C)=O)cc(CC=C(C)C)c(O)c2/C=N\O)NC1=O` (racemic), in the test on HUVEC [1], the viability at 50 µM amounted to 93%.
